Assay results reported in publication PMC7497626, “Ruthenium-Mediated ^18F-Fluorination and Preclinical Evaluation of a New CB1 Receptor Imaging Agent [^18F]FPATPP” (ACS Chemical Neuroscience, 2020).
Like-named read-outs stand apart in the source and are kept apart here. Values belong to the compound of their own block, whether it stands above or below them.

What was measured:
[1] = Stability / shelf life of the formulated tracer towards radiolysis; type: physicochemical; conditions: studied up to 5 h after the EOS, n = 2
Experimental: For tracer production for preclinical evaluation, larger amounts of initial [^18F]fluoride were used and full purification and formulation processes were performed. For the radiofluorination, the SPE method with a 30 min reaction at 160 °C was utilized (conditions as in bar 2, Figure 2B). Elution efficiency was 93 ± 2% (n = 5). Total RCY was 16.7 ± 5.7% (decay-corrected to end of bombardment, d.c. to EOB, n = 5), molar activity (Am) > 95 GBq/μmol (d.c. to end of synthesis, EOS, n = 1) and radiochemical purity (RCP) 99.9 ± 0.1% at EOS (n = 5). Activity yield was 1.0 ± 0.4 GBq (n = 5) at EOS. Synthesis time was 87 ± 5 min (n = 5). The amount of ruthenium in the formulated product was 7.8 ± 1.8 μg/mL.
For PET tracers for clinical use, a generally acknowledged limit for RCP is 95%. […] Lahdenpohja et al. reported that the RCP of [^18F]FMPEP-d2 at EOS varied between 95.5–100% and was a function of radioactivity concentration, which was 20–200 MBq/mL (n > 150) in a 10% ethanolic solution, and the RCP was declined as a function of time due to radiolytic decomposition.[32] The shelf life of the [^18F]FMPEP-d2 was determined to be 120 min.[32] For [^18F]4 formulated in a similar ethanolic solution, the RCP at EOS was 99.9% when the RAC was 200–450 MBq/mL and the shelf life was determined to be at least 300 min, with no significant development of radioactive impurities. […]

[2] = biological target: T1, mouse cerebral CB1Rs (Mus musculus, UniProt P47746); assay: In vivo dynamic PET/CT imaging with [^18F]4, with and without rimonabant blocking
T1 construct: from tissue
T1 sequence (P47746 whole entry): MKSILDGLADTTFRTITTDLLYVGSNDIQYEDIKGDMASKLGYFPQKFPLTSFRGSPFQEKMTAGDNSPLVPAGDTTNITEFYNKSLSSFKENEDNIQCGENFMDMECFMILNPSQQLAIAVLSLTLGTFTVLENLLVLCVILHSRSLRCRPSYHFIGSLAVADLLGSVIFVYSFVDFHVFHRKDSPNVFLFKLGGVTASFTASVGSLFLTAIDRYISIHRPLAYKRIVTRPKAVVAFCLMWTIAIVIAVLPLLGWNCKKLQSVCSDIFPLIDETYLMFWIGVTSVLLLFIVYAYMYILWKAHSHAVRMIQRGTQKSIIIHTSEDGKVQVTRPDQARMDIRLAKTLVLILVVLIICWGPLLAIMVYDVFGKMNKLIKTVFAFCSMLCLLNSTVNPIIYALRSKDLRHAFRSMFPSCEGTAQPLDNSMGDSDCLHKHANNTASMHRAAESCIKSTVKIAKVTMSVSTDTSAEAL
Experimental: Dynamic PET scans were performed for 5 month old mice with an Inveon Multimodality PET/CT scanner (Siemens Medical Solutions USA, Knoxville, Tennessee). Mice were anesthetized with 2.5% isoflurane/oxygen gas, and body temperature was maintained with a heating pad and a bubble-wrap cover. CT transmission scans were performed to correct for attenuation. PET scans were initiated in parallel with an intravenous (iv) bolus injection of [^18F]4 to the mouse tail vein (4–5 month old, n = 6, 2 females; injected radioactivity 4.0 ± 0.4 MBq; injected mass 56 ± 25 ng, 1.7 ± 0.7 μg/kg).
Dynamic emission scans were acquired for 120 min in 3D list mode, with an energy window of 350–650 keV. Scanning times were 120 min (54 frames 30 × 10 s, 15 × 60 s, 4 × 300 s, 2 × 600 s, 3 × 1200 s). The list mode data were stored in 3D sinograms. Data were reconstructed with OSEM3D/MAP software (2 OSEM3D iterations and 18 MAP iterations). The PET/CT images were preprocessed in Matlab R2017a (The MathWorks, Natick, Massachusetts) with an in-house semiautomated pipeline for preclinical images that uses SPM12 (Wellcome Department of Cognitive Neurology, London, UK) preprocessing functionalities and analysis routines. Images were first cropped to a bounding box containing the heads, and individual PET images were coregistered through a rigid-body transformation to their corresponding CT scan. Subjects were spatially normalized through a two-step registration (a rigid followed by an affine transformation) of each subject’s CT to a template CT that was previously constructed as an average of several subjects and was aligned with an atlas T2-weighted MRI template. The combination of transformations was then applied to the PET images, which were also resampled to a voxel size of 0.2 × 0.2 × 0.2 mm^3 (trilinear interpolation), matching the anatomical atlas dimensions.
Volume of interest (VOI) analysis of the whole brain, neocortex, and hippocampus was performed on each subject by averaging the signal inside a slightly modified version of the Ma et al.[40] atlas delineated VOIs, and data were obtained as standardized uptake values (SUVs). SUVs were calculated as follows: SUV = tissue activity concentration (Bq/mL)/(injected dose (Bq)/body weight (g)); it was assumed that 1 mL of tissue equals 1 g. Tissue activity and dose were decay corrected to the same time point.
(§1) The specificity of [^18F]4 on mouse cerebral CB1Rs was examined in a 120 min in vivo study, and then, the same mice were used for ex vivo biodistribution and brain autoradiography studies. […] Control mice (n = 3, 1 female) were the given vehicle (90 μL, 10% EtOH in Kleptose β-cyclodextrin). […] Mice were sacrificed 120 min after iv injection of [^18F]4, and the ^18F-radioactivity distribution differences between pretreated and control mice were examined with in vivo PET imaging, ex vivo autoradiography, and 2480 Wizard Gamma Counter, and the data were analyzed as described in the previous sections.

[3] = biological target: T1, mouse cerebral CB1Rs; assay: Ex vivo brain autoradiography with [^18F]4, region-to-thalamus ratios; type: in vivo; conditions: 120 min post injection
Experimental: For autoradiography, brains were further frozen and cut into 20 μm coronal cryosections for digital autoradiography, and the slices were exposed on an imaging plate (BAS-TR2025, Fuji Photo Film Co.) for approximately 2 half-lives and scanned with a Fuji BAS5000 phosphorimager (FUJIFILM Life Science, Stamford, Connecticut). Digital autoradiographic images were analyzed for count densities with the Aida 4 program (Raytest Isotopenmessgeräte GmbH, Straubenhardt, Germany). For brain slices, regions of interest (ROIs) were drawn over the parietotemporal cortex, striatum, frontal cortex, hippocampus, cerebellar gray matter, and thalamus. The autoradiography was quantified as ratios of the different ROIs relative to the thalamus, which was used as the reference region.
as §1

[4] = Ex vivo biodistribution with [^18F]4; type: in vivo, mouse
Experimental: All in vivo animals (n = 6, 2 females) and additional 2 month old mice (n = 11, males, injected radioactivity 7.0 ± 3.0 MBq; injected mass 160 ± 60 ng, 6.2 ± 2.6 μg/kg) were used for ex vivo studies to examine the biodistribution and metabolism of [^18F]4. Thus, the injected dose and injected mass to all the animals used (n = 17) were 5.9 ± 2.8 MBq and 120 ± 70 ng, 4.6 ± 3.0 μg/kg, respectively. After iv injection of [^18F]4, mice were sacrificed in deep anesthesia of 4.0% isoflurane with cardiac puncture at 30 (n = 4), 60 (n = 2), and 120 min (in vivo animals, n = 6 and 2 month old mice n = 5). Organs were immediately dissected, weighed, and measured for ^18F-radioactivity in a 2480 Wizard Gamma Counter (Wallac PerkinElmer, Turku, Finland).
as §1

[5] = Radiometabolite analysis with [^18F]4 in plasma and cortex; type: in vivo, mouse; conditions: 120 min p.i., n = 5
Experimental: The 2 month old animals (n = 11, used only for ex vivo studies) were used for metabolite analysis. Plasma and brain samples were collected at 30 (n = 4), 60 (n = 2), and 120 min (n = 5) p.i. Plasma samples were treated with MeCN and centrifuged to remove the proteins from the solution. Brain tissue samples were treated with the 40/60 (v/v) 1% TFA (aq)/MeCN solution and then centrifuged. The supernatants were applied to HPTLC silica gel 60 RP-18 plates (Art. 1.05914.0001, Merck, Darmstadt, Germany), and the plates were developed in 40/60 (v/v) 1% TFA (aq)/ MeCN. After drying, the TLC plates were exposed to an imaging plate for approximately 4 h and the imaging plate was scanned with a Fuji Analyzer BAS5000. The amount of [^18F]4 and its radioactive metabolites were analyzed with the Aida 4 program, and the curves were fitted with GraphPad Prism 6.0 (GraphPad Software, San Diego, California) using a double exponential decay equation.

[6] = system: CB1R; parameters: method as in PMID 22699528; conditions: cited from earlier work
[7] = system: CB1R; conditions: cited from earlier work
[8] = Ex vivo biodistribution with [^18F]FMPEP-d2; type: in vivo, mouse
Experimental: After iv injection of [^18F]FMPEP-d2 to the mouse tail vein, the mice were sacrificed at the following time points: 30 min (3–4 month old, n = 3, males; injected radioactivity 1.3 ± 0.3 MBq; injected mass 1.5 ± 0.5 ng), 60 min (3–4 months old, n = 4, males; injected radioactivity 1.2 ± 0.8 MBq; injected mass 1.3 ± 1.0 ng), and 120 min (1.5–6 month old, n = 12, 5 females; injected radioactivity 2.6 ± 0.8 MBq; injected mass 3.1 ± 1.1 ng). Mice were sacrificed in deep anesthesia of 4.0% isoflurane with cardiac puncture. Organs were operated in the similar manner as in the biodistribution study with [^18F]4.

[9] = parameters: method as in PMID 32374481; conditions: 10% ethanolic solution, radiolytic decomposition; cited from earlier work
[10] = system: CB1R; parameters: method as in PMID 29909177; conditions: mice, cited from earlier work
[11] = parameters: method as in PMID 29909177; conditions: 180 min p.i.; cited from earlier work
[12] = system: CB1R; parameters: method as in doi:10.1016/B978-0-12-417041-4.00002-3; conditions: cited from earlier work
[13] = 2 mg/kg rimonabant iv 10 min before tracer, 120 min after injection

Reduction of binding by rimonabant pretreatment, hippocampus [2, 13]: 62% | Reduction of binding by rimonabant pretreatment, neocortex [2, 13]: 59% | Reduction of binding by rimonabant pretreatment, whole brain [2, 13]: 58% | SUV at 120 min p.i. (after washout) ([2]; wild-type mice, 120 min p.i.): 1.3 | Peak standardized uptake value (SUV), hippocampus ([2]; wild-type mice, baseline): 2.14 | Peak standardized uptake value (SUV), neocortex ([2]; wild-type mice, baseline): 1.80 | Peak standardized uptake value (SUV), whole brain ([2]; wild-type mice, baseline): 1.92 | Time of maximum tracer uptake after injection ([2]; wild-type mice, brain PET): 30 min | Region-to-thalamus ratios in mice pretreated with rimonabant ([3]; 2 mg/kg rimonabant pretreatment): ~1 | Ratio cortex and cerebellar gray matter to thalamus ([3]; without blocking): 3.7 | Ratio frontal cortex to thalamus ([3]; without blocking): 2.5 | Ratio globus pallidus to thalamus ([3]; without blocking): 4.9 | Ratio parietotemporal cortex to thalamus ([3]; without blocking): 2.3 | Ratio striatum to thalamus ([3]; without blocking): 2.8 | Ratio whole hippocampus to thalamus ([3]; without blocking): 2.6 | Cortex uptake ([4]; 30 min p.i.): 11.5 ± 3.7 %ID/g | Liver uptake ([4]; 30 min p.i.): 12.1 ± 0.7 %ID/g | Whole brain uptake ([4]; 30 min p.i.): 9.8 ± 3.2 %ID/g | Bone uptake (skull bone, parietal bone) ([4]; 120 min p.i.): 0.4 ± 0.1 %ID/g | Cortex uptake ([4]; 120 min p.i.): 5.1 ± 1.17 % ID/g | Liver uptake ([4]; 120 min p.i.): 8.2 ± 1.6 %ID/g | Whole brain uptake ([4]; 120 min p.i.): 4.9 ± 0.9 %ID/g | Cortex uptake in rimonabant treated mice ([4]; 120 min p.i., 2 mg/kg rimonabant pretreatment): 1.8 ± 0.2 %ID/g | Residual tracer in plasma, of the total ^18F-radioactivity [5]: approximately 21.3 ± 3.5% | Residual tracer in the cortex, of the total ^18F-radioactivity [5]: 75.0 ± 4.3%
SMILES: C[C@@H](N[C@@H]1C[C@H](c2cccc([18F])c2)N(c2ccc(C(F)(F)F)cc2)C1=O)c1ccccc1 [[^18F]4, (3R,5R)-5-(3-[^18F]fluorophenyl)-3-(((R)-1-phenylethyl)amino)-1-(4-(trifluoromethyl)phenyl)pyrrolidin-2-one]
Stability of the formulated tracer after EOS [1]: no significant decomposition was observed | Washout ([2]; wild-type mice): washout phase began immediately after the peak uptake

SMILES: Cc1ccc(OC(C)(C)C(=O)N[C@@H](C)[C@@H](Cc2ccc(OCC[18F])cc2)c2cccc(C#N)c2)nc1 [[^18F]MK-9470, N-{(1S,2S)-2-(3-cyanophenyl)-3-[4-(2-[^18F]fluoroethoxy)phenyl]-1-methylpropyl}-2-methyl-2-[(5-methylpyridin-2-yl)oxy]propanamide]
Time of maximum tracer uptake post injection ([6]; rat): 300 min | Washout ([6]; rats, even after 600 min): no washout was observed | Washout ([7]; human, even after 6 h): no washout was observed

Whole brain ^18F-radioactivity uptake ([8]; 30 min p.i., healthy mice): 5.6 ± 1.3 %ID/g | Skull bone (parietal bone) radioactivity uptake ([8]; 120 min p.i., healthy mice): 2.7 ± 0.5 %ID/g | Defluorination compared to [^18F]4 ([8]; at 120 min, from skull bone uptake): over 6 fold
SMILES: C[C@@H](N[C@@H]1C[C@H](c2cccc(OC[18F])c2)N(c2ccc(C(F)(F)F)cc2)C1=O)c1ccccc1 [[^18F]FMPEP-d2, (3R,5R)-5-(3-([^18F]fluoromethoxy)phenyl)-3-(((R)-1-phenylethyl)amino)-1-(4-(trifluoromethyl)phenyl)pyrrolidin-2-one]
Shelf life [9]: 120 min | Washout ([10]; up to 90 min p.i.): essentially no washout was observed | Time of maximum tracer uptake [10]: 30 min | Whole brain SUV [10]: 1.5 | Washout ([7]; human studies): slow washout | Amount of residual tracer [11]: 86% | CB1R vs CB2R selectivity [12]: 3580 | Kb ([12]; for CB1R, read-out: In vitro potency (Kb)): 0.187 nM
